Reference: patent US9062037B2, “Tazarotene derivatives” (Stiefel Laboratories, Inc., priority 2009, dated 2015)
Where two headings read alike, the source gives them in different places.

How the values were obtained:
[1] = system: SkinEthic RHE cultures; experiment: H and E staining and immunohistochemistry for K10, K19 and filaggrin in SkinEthic RHE cultures; assay type: cell-based, human; details: 6 μl test article, 72 hours
Experimental: (§1) SkinEthic RHE cultures were transferred into 6-well plates containing 1.0 mL/well growth media. The cultures were equilibrated at 37° C. and the media was changed daily. The cultures were subsequently placed in 60 mm petri dishes containing 3.5 mL growth media. 6 μl aliquots of the Test Articles shown in Table 3 were applied to duplicate cultures. The cultures were incubated at 37° C. for 72 hours. At the end of the incubation period, the growth media was collected and stored at −20° C. The tissues were cut in half and one half was placed in 10% NBF for histology, while the other half was placed in RNAlater™ solution (Ambion). The following analyses were performed: a) IL-1α and IL-8 activity assay; b) Hand E staining; c) Immunohistochemistry for K10, K19 and filaggrin; and d) qRT-PCR to quantitate K10, K19 and filaggrin expression.

[2] = system: SkinEthic RHE cultures; experiment: qRT-PCR of K10, K19 and filaggrin expression in SkinEthic RHE cultures; assay type: cell-based, human; details: 6 μl test article, 72 hours
Experimental: as §1

[3] = system: A431 cells; experiment: PMA-induced IL-6 release from A431 cultures; assay type: cell-based, human; details: PMA 10 ng/mL; retinoids 0.01 to 1 μg/mL; 48 hours
Experimental: A431 cells were purchased from ATCC(CRL-1555). Cells were seeded onto 12-well plates at a density of 250,000 cells/well and incubated for 72 hours at 37° C./5% CO2 to allow cells to grow to confluency. Phorbol-12-myristate 13-acetate (PMA), diluted in DMSO (10 mg/mL stock), was added in a concentration of 10 ng/mL and retinoids were added in concentrations of 0.01 to 1 μg/mL from a 10 mg/mL stock solution in DMSO. Cultures were incubated for 48 hours at 37° C. At the end of the incubation period, growth media was collected and cell viability was determined using a CellTiterGlo assay kit (Promega). Concentrations of IL-6 were determined by ELISA and normalized based on cell viability.
It is known that PMA up regulates IL-6 expression through transactivation of the nuclear transcription factor, AP-1. Retinoids, such as tretinoin, are known to inhibit transactivation of AP-1 via retinoic acid receptors.

[4] = Stability in rat plasma at room temperature; assay type: in vitro ADME
Experimental: Tazarotene, tazarotene sulfoxide and tazarotene benzoate were incubated at room temperature with human and rat plasma. The incubation was carried out in duplicate and samples were taken at specific time points for stability analyses (i) rat samples (0 hour, 2 hours and 4 hours) and (ii) human samples (0 hour, 2 hours, 4 hours and 8 hours). Samples were analyzed by LC-MS/MS.

[5] = Reaction with benzoyl peroxide (BPO) in solution; assay type: physicochemical; details: at all three temperatures (35° C., room temperature, 5° C.); BPO 50-fold excess by weight
Experimental: The reaction of (i) tazarotene, tazarotene benzoate, hydroxy tazarotenic acid and tazarotene nicotinate with (ii) benzoyl peroxide (BPO) in 30% aqueous solutions was monitored at 35° C., room temperature and 5° C.
Individual solutions of each compound were prepared at approximately 0.25 mg/mL in acetonitrile:water (6:4 by volume). Reactions were initiated by mixing equal volumes of the test solution with an approximately 12 mg/mL solution of benzoyl peroxide (BPO) in acetonitrile:water (4:1 by volume). Therefore, the reaction solution contained approximately 0.125 mg/mL of the test compound and the BPO was at a 50-fold excess by weight (i.e. at the same ratio as a product containing 0.1% tazarotene and 5% BPO). Aliquots of the reaction solutions were stored at various temperatures protected from light.
Reactions were quenched by diluting 30 μL of the reaction solution to 50 mL with a diluent (acetonitrile:water in a ratio of 1:1 by volume) and storing the sample at 10° C. in the LC/MS sample tray or at 5° C. for storage. Duplicate samples were prepared at each time point (three at the start of the reaction) and the results were averaged together to generate a single value.
Samples were analyzed on a Waters Acquity UPLC with a Waters Xevo TQMS using an ESI source in the positive mode controlled by MassLynx V4.1 software. […]

[6] = for k constant: HLM
[7] = in vitro; details: human, human skin microsomes, pH 7.4
Experimental: (§2) Hepatic microsomal reactions were carried out in microcentrifuge tubes in the following manner. Human liver microsomes (0.5 or 1.0 mg/ml protein), Test Article (1 or 10 μM), paraoxon (0, 10 or 100 μM), NADPH regenerating system (10 mM glucose-6-phosphate, 1 unit/ml glucose-6-phosphate dehydrogenase, 1 mM NADP^+), magnesium chloride (5 mM) in 0.1 M potassium phosphate buffer, pH 7.4 were incubated at 37° C. in a shaking water bath. Reactions were initiated with the addition of substrate with the exception of the zero-time incubations. The total reaction volume was 0.2 ml. The reactions were incubated for 15, 30, 45 or 60 minutes, terminated with 0.2 ml ice-cold acetonitrile and then placed on ice. For zero-time incubations, ice cold acetonitrile was added to the mixture containing microsomes, along with NADPH regenerating system, magnesium chloride in phosphate buffer and the Test Article. Each time point was carried out in triplicate.
(§3) Five time points were chosen, but because of the limitation of human skin microsome supply, each one was carried out in duplicate. Skin microsomal reactions were carried out as described above for hepatic microsomal reactions with the following two exceptions. Firstly, the total reaction volume was 0.1 mL. Secondly, incubations were terminated with 0.1 mL acetonitrile.

[8] = Metabolism in the presence of human skin microsomes; details: for Half-life / k constant: HSkM
Experimental: as §2, §3

[9] = 1 μM initial concentration, Complete (with NADPH), 0 min
[10] = 1 μM initial concentration, Complete (with NADPH), 15 min
[11] = 1 μM initial concentration, Complete (with NADPH), 30 min
[12] = 1 μM initial concentration, Complete (with NADPH), 45 min
[13] = 1 μM initial concentration, Complete (with NADPH), 60 min
[14] = 1 μM initial concentration, Without NADPH, 0 min
[15] = 1 μM initial concentration, Without NADPH, 15 min
[16] = 1 μM initial concentration, Without NADPH, 30 min
[17] = 1 μM initial concentration, Without NADPH, 45 min
[18] = 1 μM initial concentration, Without NADPH, 60 min
[19] = 10 μM initial concentration, Complete (with NADPH), 0 min
[20] = 10 μM initial concentration, Complete (with NADPH), 15 min
[21] = 10 μM initial concentration, Complete (with NADPH), 30 min
[22] = 10 μM initial concentration, Complete (with NADPH), 45 min
[23] = 10 μM initial concentration, Complete (with NADPH), 60 min
[24] = 10 μM initial concentration, Without NADPH, 0 min
[25] = 10 μM initial concentration, Without NADPH, 15 min
[26] = 10 μM initial concentration, Without NADPH, 30 min
[27] = 10 μM initial concentration, Without NADPH, 45 min
[28] = 10 μM initial concentration, Without NADPH, 60 min

SMILES: CCOC(=O)c1ccc(C#Cc2ccc3c(c2)C(C)(C)CC(OC(=O)c2ccccc2)S3)nc1 (stereo not drawn) [Compound 4, 6-(2-(2-benzoyloxy-4,4-dimethylthiochroman-6-yl)ethynyl)nicotinic acid, ethyl ester]
- filaggrin by immunohistochemistry [1]: down regulated
- down regulation of K10 gene expression compared to untreated and vehicle controls [2]: uninterpretable
- down regulation of filaggrin gene expression compared to untreated and vehicle controls [2]: equivocal
- PMA-induced IL-6 release [3]: significantly decreased
- concentration in rat plasma ([4]; 0 hour): 59.8 ng/mL
- concentration in rat plasma ([4]; 2 hours): 15.0 ng/mL
- concentration in rat plasma ([4]; 4 hours): 2.29 ng/mL
- less reactive with BPO than tazarotene and hydroxy tazarotenic acid [5]: ~25 times
- Test Article remaining, percent of initial concentration [6, 9]: 100%
- Test Article remaining, percent of initial concentration [6, 10]: 20.3%
- Test Article remaining, percent of initial concentration [6, 11]: 4.45%
- Test Article remaining, percent of initial concentration [6, 12]: 1.47%
- Test Article remaining, percent of initial concentration [6, 13]: 0.73%
- Test Article remaining, percent of initial concentration [6, 14]: 100%
- Test Article remaining, percent of initial concentration [6, 15]: 17.3%
- Test Article remaining, percent of initial concentration [6, 16]: 2.97%
- Test Article remaining, percent of initial concentration [6, 17]: 1.07%
- Test Article remaining, percent of initial concentration [6, 18]: 0.53%
- Test Article remaining, percent of initial concentration [6, 19]: 100%
- Test Article remaining, percent of initial concentration [6, 20]: 99.3%
- Test Article remaining, percent of initial concentration [6, 21]: 73.4%
- Test Article remaining, percent of initial concentration [6, 22]: 63.2%
- Test Article remaining, percent of initial concentration [6, 23]: 55.2%
- Test Article remaining, percent of initial concentration [6, 24]: 100%
- Test Article remaining, percent of initial concentration [6, 25]: 87.0%
- Test Article remaining, percent of initial concentration [6, 26]: 64.0%
- Test Article remaining, percent of initial concentration [6, 27]: 51.0%
- Test Article remaining, percent of initial concentration [6, 28]: 41.0%
- k constant ([6]; 1 μM, Complete): −0.0893
- k constant ([6]; 1 μM, Without NADPH): −0.0964
- k constant ([6]; 10 μM, Complete): −0.0097
- k constant ([6]; 10 μM, Without NADPH): −0.0146
- half-life at 10 µM [7]: 6.8 h
- rate of metabolism by human skin microsomes relative to human liver microsomes [8]: slower rate
- Half-life ([8]; 1 μM, Complete): 8.25 h
- k constant ([8]; 1 μM, Complete): −0.0014
- Half-life ([8]; 1 μM, Without NADPH): 3.62 h
- k constant ([8]; 1 μM, Without NADPH): −0.0032
- k constant ([8]; 10 μM, Complete): −0.0017
- Half-life ([8]; 10 μM, without NADPH): 7.7 h
- k constant ([8]; 10 μM, without NADPH): −0.0015
- metabolized ([8]; after 150 min, 2 mg/ml human skin microsomes): 20%

SMILES: CCOC(=O)c1ccc(C#Cc2ccc3c(c2)C(C)(C)CCS3)nc1 [Tazarotene, ethyl 6-[2-(4,4-dimethylthiochroman-6-yl)-ethynyl nicotinate]
- concentration in rat plasma ([4]; 0 hour): 16.4 ng/mL
- concentration in rat plasma ([4]; 2 hours): <LOD
- concentration in rat plasma ([4]; 4 hours): <LOD
- Test Article remaining, percent of initial concentration [6, 9]: 100%
- Test Article remaining, percent of initial concentration [6, 10]: 21.1%
- Test Article remaining, percent of initial concentration [6, 11]: 4.91%
- Test Article remaining, percent of initial concentration [6, 12]: 1.80%
- Test Article remaining, percent of initial concentration [6, 13]: 0.70%
- Test Article remaining, percent of initial concentration [6, 14]: 100%
- Test Article remaining, percent of initial concentration [6, 15]: 22.0%
- Test Article remaining, percent of initial concentration [6, 16]: 4.86%
- Test Article remaining, percent of initial concentration [6, 17]: 1.43%
- Test Article remaining, percent of initial concentration [6, 18]: 0.65%
- Test Article remaining, percent of initial concentration [6, 19]: 100%
- Test Article remaining, percent of initial concentration [6, 20]: 24.1%
- Test Article remaining, percent of initial concentration [6, 21]: 6.55%
- Test Article remaining, percent of initial concentration [6, 22]: 2.18%
- Test Article remaining, percent of initial concentration [6, 23]: 0.89%
- Test Article remaining, percent of initial concentration [6, 24]: 100%
- Test Article remaining, percent of initial concentration [6, 25]: 21.9%
- Test Article remaining, percent of initial concentration [6, 26]: 4.64%
- Test Article remaining, percent of initial concentration [6, 27]: 1.48%
- Test Article remaining, percent of initial concentration [6, 28]: 0.55%
- k constant ([6]; 1 μM, Complete): −0.0880
- k constant ([6]; 1 μM, Without NADPH): −0.0899
- k constant ([6]; 10 μM, Complete): −0.0827
- k constant ([6]; 10 μM, Without NADPH): −0.0914
